In patent publication US10500207B2, “Compounds for the treatment of diseases associated with amyloid or amyloid-like proteins” (AC Immune SA, priority 2010, dated 2019):

Target: Aβ1-42 peptide (Homo sapiens, UniProt P05067)
Experiment: Thioflavin T spectrofluorescence assay (ThT-assay): inhibition of Aβ1-42 aggregation (% inhibition at 330 μM; IC50 from dilution series)
Details: 24 h, read-out: Inhibition at 330 μM [%], ThT assay; 330 μM small molecule, 33 μM Aβ1-42 (10:1), 24 hrs at 37° C.; mean ± standard deviation of two independent experiments
Method: Aβ1-42 lyophilized powder (Bachem) was reconstituted in hexafluoroisopropanol (HFIP) to 1 mM. The peptide solution was sonicated for 15 min at room temperature, agitated overnight, and aliquots were made into non-siliconized microcentrifuge tubes. The HFIP was then evaporated under a stream of argon. The resulting peptide film was dried under vacuum for 10 min, tightly sealed and stored at −80° C. until used.
A positive control without a small molecule was prepared to measure maximum RFU. A negative control without Aβ1-42 was prepared for each small molecule. […] The solutions were then incubated for 24 hrs at 37° C., and the spectrofluorescence (relative fluorescence units; RFU) were read in six replicates in black 384-well assay plates (Perkin-Elmer) on a Perkin-Elmer FluoroCount spectrofluorometer. The inhibition of aggregation is expressed as mean % inhibition±1 standard deviation (SD) according to the following equation:
Racemic compounds and their enantiomers were tested for their ability to inhibit amyloid peptide aggregation using the ThT assay. To determine the IC50, the following dilutions of the compounds were used in the ThT assay described above:

Sequence of Aβ1-42 peptide (P05067 672-713 limits assumed): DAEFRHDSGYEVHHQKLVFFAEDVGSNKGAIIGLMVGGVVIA

Row | SMILES | inhibition at 330 µM [%]
1 | CN1CCN(c2ccc(Nc3ccc4[nH]c5c(c4c3)CC(N(C)C)CC5)cc2)CC1 (centres unmarked) [Example 77] | 98 ± 0.6
2 | c1cc2c(C3CCNCC3)c[nH]c2nc1NCC1CCNCC1 [Example 50] | 67.5 ± 0.1
3 | CN1CCN(c2ccc(Nc3ccc4c(c3)c3c(n4C)CCS(=O)(=O)C3)cc2)CC1 [Example 182] | 66.1 ± 6.9
4 | COC1CCc2c(c3ccc(Nc4ccc(F)c(F)c4)nc3n2C)C1 (centres unmarked) [Example 204] | 93.5 ± 0.4
5 | CN(c1ccc2c(c1)c(C1CCNCC1)cn2C)c1ccc2c(C3CCNCC3)cn(C)c2c1 [Example 54] | 96 ± 2.7
6 | Cn1cc(C2CCNCC2)c2cc(Nc3ccc(F)c(F)c3)ccc21 [Example 57] | 85.1 ± 3.2
7 | Cn1c2c(c3cc(Nc4ccc5c(c4)OCCO5)ccc31)CN(CCCCS(C)(=O)=O)CC2 [Example 209] | 66.2 ± 6.5
8 | Cn1c2c(c3ccc(N4CCOCC4)nc31)CCCC2 [Example 163] | 32.7 ± 0.9
9 | CN1CCC(c2c[nH]c3cc(N4CCc5ccccc5C4)ccc23)CC1 [Example 23] | 97.8 ± 1.5
10 | CNC1CCc2c(c3ccc(Nc4ccc5ncn(C)c5c4)nc3n2C)C1 (centres unmarked) [Example 159] | 91.9 ± 1.6
11 | c1cc2c(cc1Nc1ccc3c(c1)OCO3)OCO2 [Example 187] | 82.2 ± 6
12 | COc1ccc(Nc2ccc3c(C4CCN(C)CC4)cn(C)c3c2)cc1OC [Example 104] | 89.3 ± 10.6
13 | c1cc2ncc(Nc3ccc4cc[nH]c4n3)cc2[nH]1 [Example 13] | 97.8 ± 1.8
14 | Cn1c2c(c3ccc(Nc4ccc5c(c4)NC(=O)CO5)nc31)CCCC2 [Example 168] | 82.1 ± 7
15 | Cn1c2c(c3ccc(Nc4ccc5c(c4)OCCO5)cc31)CN(CCCCS(C)(=O)=O)CC2 [Example 207] | 75.6 ± 13.4
16 | CN1CCC(c2c[nH]c3cc(Nc4ccc5[nH]cc(C6CCN(C)CC6)c5c4)ccc23)CC1 [Example 118] | 96.8 ± 0.9
17 | CNC1CCc2c(c3ccc(Nc4cc(F)c(F)cc4F)nc3n2C)C1 (centres unmarked) [Example 28] | 91.4 ± 2.9
18 | CN1CCC(c2c[nH]c3cc(Nc4ccc(N5CCOCC5)cc4)ccc23)CC1 [Example 162] | 94.5 ± 3.1
19 | CNC1CCc2c(c3ccc(Nc4ccc(C)c(OC)c4)nc3n2C)C1 (centres unmarked) [Example 160] | 96.3 ± 0.3
20 | CN1CCC(c2c[nH]c3cc(Nc4ccc5c(C6CCN(C)CC6)cn(C)c5n4)ccc23)CC1 [Example 196] | 80 ± 4.6
21 | CC(=O)N1CCN(c2ccc(Nc3ccc4c5c(n(C)c4n3)CCCC5)cc2)CC1 [Example 170] | 70.8 ± 2.3
22 | CNC1CCc2c(c3ccc(Nc4ccc5c(c4)OCO5)nc3n2C)C1 (centres unmarked) [Example 157] | 95 ± 1.5
23 | FC1(CNc2ccc3c(C4CCNCC4)c[nH]c3n2)CCNCC1 [Example 37] | 47.4 ± 5.2
24 | CN1CCC(c2c[nH]c3cc(Nc4ccc5[nH]cc(C6CCNCC6)c5c4)ccc23)CC1 [Example 68] | 90.4 ± 5.3
25 | COc1ccc(Nc2ccc3[nH]c4c(c3c2)CC(N(C)C)CC4)cc1OC (centres unmarked) [Example 88] | 96.9 ± 2.6
26 | COc1ccc(Nc2ccc3c(C4CCNCC4)cn(C)c3c2)cc1F [Example 98] | 95.3 ± 0.1
27 | c1cc2ccc(Nc3ccc4cc[nH]c4c3)cc2[nH]1 [Example 17] | 96.3
28 | CNC1(C)CCc2c(c3ccc(Nc4ccc(OC)c(OC)c4)nc3n2C)C1 (centres unmarked) [Example 90] | 75.1 ± 0.3
29 | c1ccc(Nc2ccc3c(c2)OCO3)cc1 [Example 185] | 55.2 ± 6
30 | c1cc2ccc(Nc3ccc4cc[nH]c4n3)nc2[nH]1 [Example 8] | 74.7 ± 6.8

Same assay, conditions: IC50 μM 1st assay, ThT assay, dilution series 330 μM to 0.08 μM; 1st assay

Row | SMILES | IC50 [µM]
31 | CNC1CCc2c(c3ccc(Nc4ccc5c(c4)OCCO5)nc3n2C)C1 (single isomer, unassigned) [Example 217b] | 6.6
32 | CNC1CCc2c(c3ccc(Nc4ccc(F)c(F)c4)nc3n2C)C1 (single isomer, unassigned) [Example 214a] | 35.4
33 | CNC1CCc2c(c3ccc(Nc4ccc5c(c4)OCCO5)nc3n2C)C1 (single isomer, unassigned) [Example 217a] | 28

Same assay, conditions: IC50 μM 2nd assay, ThT assay, dilution series 330 μM to 0.08 μM; 2nd assay

Row | SMILES | IC50 [µM]
34 | CNC1CCc2c(c3ccc(Nc4ccc5c(c4)OCCO5)nc3n2C)C1 (single isomer, unassigned) [Example 217b] | 5.9
35 | CNC1CCc2c(c3ccc(Nc4ccc(F)c(F)c4)nc3n2C)C1 (single isomer, unassigned) [Example 214a] | 33.5
36 | CNC1CCc2c(c3ccc(Nc4ccc5c(c4)OCCO5)nc3n2C)C1 (single isomer, unassigned) [Example 217a] | 23.6

Same assay, conditions: ThT assay; 330 μM small molecule, 33 μM Aβ1-42 (10:1), 24 hrs at 37° C.; mean ± standard deviation of two independent experiments

Row | SMILES | Inhibition at 330 μM [%]
37 | CN(C)C(=O)c1ccc(Nc2ccc3cc[nH]c3n2)cc1 [Example 5] | no inhibition
38 | CN(C)C(=O)c1cccc(Nc2ccc3cc[nH]c3n2)c1 [Example 7] | no inhibition
